Here are results for 1 molecule from ChEMBL document CHEMBL5247655, “Simplified Derivatives of Tetrandrine as Potent and Specific P-gp Inhibitors to Reverse Multidrug Resistance in Cancer Chemotherapy” (J Med Chem, 2023).

In data set [1] the test system is ECa-109 cell line. As to the kind of experiment: Induction of apoptosis in vincristine resistant human Eca-109 cells assessed as necrotic cells at 1 uM incubated for 24 hrs in presence of vincristine by AnnexinV-FITC/PI staining based flow cytometric analysis (reference value: 0.35%). The format is functional.
Data set [2] in a line: Apparent oral clearance in Sprague-Dawley rat at 30 mg/kg, po measured upto 24 hrs by UPLC/MS/MS analysis. The format is ADME, organism-based. To be noted: in vivo.
The test system of data set [3] is ECa-109 cell line. Put plainly: Induction of apoptosis in vincristine resistant human Eca-109 cells assessed as late apoptotic cells at 5 uM incubated for 24 hrs by AnnexinV-FITC/PI staining based flow cytometric analysis (reference value: 7.19%). The format is functional. For orientation: A flow cytometer gives signals particle by particle.
Data set [4] concerns the target T1, ATP-dependent translocase ABCB1 (Homo sapiens, UniProt P08183). Put plainly: Binding affinity to P-gp in vincristine resistant human Eca-109 cells assessed as stabilization of protein at 67 degree C at 100 uM incubated for 30 mins by thermal shift assay. Conditions: eca-109, 0.5 h. The data set is classed as cell-based.
Data set [5] in a line: Half life in Sprague-Dawley rat at 3 mg/kg, iv measured upto 24 hrs by UPLC/MS/MS analysis. The data set is classed as ADME, organism-based. To be noted: in vivo.
In data set [6] the test system is ECa-109 cell line. As to the kind of experiment: Induction of apoptosis in vincristine resistant human Eca-109 cells assessed as late apoptotic cells at 1 uM incubated for 24 hrs in presence of vincristine by AnnexinV-FITC/PI staining based flow cytometric analysis (reference value: 6.01%). The data set is classed as functional.
The subject of data set [7] is ECa-109 cell line. As to the kind of experiment: Reversal of vincristine-resistance in human Eca-109 cells assessed as fold reversal by measuring cell viability at 1 uM incubated for 48 hrs by CCK-8 method relative to vincristine alone. The data set is classed as functional. (Tetrazolium assays rely on reduction of a dye to a coloured formazan, in cell work by metabolically active cells.)

The subject of data set [8] is ECa-109 cell line. Put plainly: Induction of apoptosis in vincristine resistant human Eca-109 cells assessed as necrotic cells at 5 uM incubated for 24 hrs in presence of vincristine by AnnexinV-FITC/PI staining based flow cytometric analysis (reference value: 0.35%). The format is functional.
Data set [9] is described as follows: AUMC (0 to infinity) in Sprague-Dawley rat at 3 mg/kg, iv measured upto 24 hrs by UPLC/MS/MS analysis. The format is ADME, organism-based. Conditions: in vivo.
Data set [10] deals with T1, ATP-dependent translocase ABCB1. Put plainly: Inhibition of P-gp efflux in vincristine resistant human Eca-109 cells assessed as effect on accumulation of calcein-AM. The format is cell-based.
In data set [11] the test system is ECa-109 cell line. Put plainly: Induction of apoptosis in vincristine resistant human Eca-109 cells assessed as early apoptotic cells at 1 uM incubated for 24 hrs in presence of vincristine by AnnexinV-FITC/PI staining based flow cytometric analysis (reference value: 4.43%). The format is functional.
Data set [12] has as its system ECa-109 cell line. As to the kind of experiment: Induction of apoptosis in vincristine resistant human Eca-109 cells assessed as late apoptotic cells at 2.5 uM incubated for 24 hrs in presence of vincristine by AnnexinV-FITC/PI staining based flow cytometric analysis (reference value: 6.01%). The format is functional.
Data set [13] relates to ECa-109 cell line. As to the kind of experiment: Induction of apoptosis in vincristine resistant human Eca-109 cells assessed as late apoptotic cells at 2.5 uM incubated for 24 hrs by AnnexinV-FITC/PI staining based flow cytometric analysis (reference value: 7.19%). The data set is classed as functional.
A short description of data set [14]: Apparent volume of distribution during terminal phase in Sprague-Dawley rat at 30 mg/kg, po measured upto 24 hrs by UPLC/MS/MS analysis. The format is ADME, organism-based. Conditions: in vivo, read-out: Vz/F.
Data set [15] in a line: AUC (0 to t) in Sprague-Dawley rat at 30 mg/kg, po measured upto 24 hrs by UPLC/MS/MS analysis. The format is ADME, organism-based. Set-up: time < 24 hrs, dose 30 mg/kg, route po. To be noted: in vivo.
Data set [16] has as its target T1, ATP-dependent translocase ABCB1. As to the kind of experiment: Inhibition of P-gp efflux in vincristine resistant human Eca-109 cells assessed as increase in rhodamine 123 accumulation incubated for 3 hrs by DAPI staining based laser-scanning confocal microscopy analysis. To be noted: eca-109, 3 h, at 1 to 5 µM, dose 1-5 µM. The format is cell-based.
Data set [17] in a line: Cytotoxicity against HEK293T cells incubated for 48 hrs by CCK-8 method. Conditions: human. The data set is classed as toxicity, cell-based, HEK-293T.
Data set [18] can be described thus: Terminal elimination half life in Sprague-Dawley rat at 30 mg/kg, po measured upto 24 hrs by UPLC/MS/MS analysis. The data set is classed as ADME, organism-based. To be noted: in vivo, read-out: LambdaZ (converted).
The test system of data set [19] is ECa-109 cell line. As to the kind of experiment: Synergistic antitumor activity against in vincristine resistant p-gp overexpressing human Eca-109 cells xenografted in nude mouse assessed as reduction in tumor weight at 30 mg/kg, IG administered every two days for 21 days in presence of vincristine by caliper method. The data set is classed as functional, organism-based. To be noted: time 21.0 day. On the technique in general: In xenograft studies the graft and the host belong to different species.

Data set [20] deals with ECa-109 cell line. As to the kind of experiment: Reversal of VCR -resistance in human Eca-109 cells assessed as cell viability at 2.5 uM incubated for 48 hrs by CCK-8 method (reference value: 6830.0+/-537.0 nM). The data set is classed as functional, cell-based. To be noted: ECa-109, 48 h.
Data set [21] has as its system ECa-109 cell line. As to the kind of experiment: Induction of apoptosis in vincristine resistant human Eca-109 cells assessed as early apoptotic cells at 1 uM incubated for 24 hrs by AnnexinV-FITC/PI staining based flow cytometric analysis (reference value: 2.30%). The data set is classed as functional.
Data set [22] concerns ECa-109 cell line. Put plainly: Synergistic antitumor activity against in vincristine resistant p-gp overexpressing human Eca-109 cells xenografted in nude mouse assessed as increase in vacuoles at 30 mg/kg, IG administered every two days for 21 days in presence of vincristine by TUNEL analysis. The data set is classed as functional, organism-based. Conditions: time 21.0 day.

Data set [23] addresses T1, ATP-dependent translocase ABCB1. Put plainly: Inhibition of P-gp efflux in vincristine resistant human Eca-109 cells assessed as effect on accumulation of doxorubicin. The data set is classed as cell-based.
The test system of data set [24] is ECa-109 cell line. As to the kind of experiment: Induction of apoptosis in vincristine resistant human Eca-109 cells assessed as necrotic cells at 2.5 uM incubated for 24 hrs by AnnexinV-FITC/PI staining based flow cytometric analysis (reference value: 0.25%). The data set is classed as functional.

Active and inactive are the calls of the source.

T1 sequence (P08183 whole entry): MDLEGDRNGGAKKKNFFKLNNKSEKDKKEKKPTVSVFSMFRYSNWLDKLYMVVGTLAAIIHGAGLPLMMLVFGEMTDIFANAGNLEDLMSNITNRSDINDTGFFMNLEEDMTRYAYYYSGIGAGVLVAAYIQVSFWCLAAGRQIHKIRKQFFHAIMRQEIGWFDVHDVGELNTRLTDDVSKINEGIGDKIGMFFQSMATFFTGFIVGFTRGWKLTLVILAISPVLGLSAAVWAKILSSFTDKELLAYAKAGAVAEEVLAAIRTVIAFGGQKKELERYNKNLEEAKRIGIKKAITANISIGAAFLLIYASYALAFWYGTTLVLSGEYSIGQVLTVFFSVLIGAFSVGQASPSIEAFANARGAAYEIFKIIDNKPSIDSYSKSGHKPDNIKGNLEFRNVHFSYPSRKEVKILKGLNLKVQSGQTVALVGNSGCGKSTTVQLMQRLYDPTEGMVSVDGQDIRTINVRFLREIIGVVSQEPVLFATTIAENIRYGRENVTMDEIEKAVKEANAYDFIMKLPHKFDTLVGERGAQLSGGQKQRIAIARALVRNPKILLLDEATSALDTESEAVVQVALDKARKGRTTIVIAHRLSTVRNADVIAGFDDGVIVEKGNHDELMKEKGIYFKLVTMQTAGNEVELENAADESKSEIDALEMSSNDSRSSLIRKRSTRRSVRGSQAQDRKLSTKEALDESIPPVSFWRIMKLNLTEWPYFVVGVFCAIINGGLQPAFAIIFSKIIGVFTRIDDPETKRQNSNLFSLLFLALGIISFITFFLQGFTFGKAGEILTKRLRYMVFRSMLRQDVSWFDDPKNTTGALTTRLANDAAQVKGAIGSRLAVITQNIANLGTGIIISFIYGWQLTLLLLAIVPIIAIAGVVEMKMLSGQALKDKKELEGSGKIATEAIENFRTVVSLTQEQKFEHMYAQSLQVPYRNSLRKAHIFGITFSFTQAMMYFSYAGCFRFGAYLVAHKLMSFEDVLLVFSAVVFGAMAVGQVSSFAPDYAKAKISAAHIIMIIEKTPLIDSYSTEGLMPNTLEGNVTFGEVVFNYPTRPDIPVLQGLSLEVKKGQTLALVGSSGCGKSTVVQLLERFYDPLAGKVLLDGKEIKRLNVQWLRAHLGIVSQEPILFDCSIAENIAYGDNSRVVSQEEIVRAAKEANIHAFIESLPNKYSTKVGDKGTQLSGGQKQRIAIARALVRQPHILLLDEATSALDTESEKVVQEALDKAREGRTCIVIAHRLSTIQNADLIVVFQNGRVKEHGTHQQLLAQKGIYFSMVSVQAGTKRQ

Consider `COc1cc2c(cc1OC)C(Cc1ccc(OC)c(OCc3ccccc3)c1)N(C)CC2` (centres undefined), for which the Activity in [1] is given as 0.37%; in data set [3], 6.58%; in [4] it was “Active”; in data set [6], 8.64%; in data set [8], 0.62%; in data set [11], 14.9%. The Activity is recorded as 11.3% in [12], 5.69% in data set [13], 2.07% in [21] and 0.11% in data set [24]. The CL/F in [2] is 186 mL/min/kg. For the same molecule, the half-life in [5] is 506 min. The “fold change (FC)” value in [7] came out at 3.7. The molecule also had an AUMC in data set [9] of 7391.35 ng/mL.hr^2. Besides, the entries for the “inhibition (INH)” value in data set [10], in [16] and in data set [23] were “Active”, “Dose-Dependent Effect” and “Active”, respectively. In data set [14], the Vd/F was determined as 111 L/kg. This molecule also registered an AUC(0-t) at 24 h in data set [15] of 2670 ng·h/mL. The IC50 at 48 h in data set [17] is > 50 µM. Further, the k el at 24 h in [18] is 3.33e-05 s⁻¹. Besides, the outcome in [19] and in [22] was Active. Also, the IC50 in data set [20] was 66.1 nM.

As usually defined, the CL/F is the apparent clearance, not corrected for the fraction that reaches the circulation. The half-life is the time needed for the level to fall by half in the phase considered. Usually AUC(0-t) stands for exposure summed from dosing to a finite time, without extrapolation to infinity. The IC50 is the point on the concentration scale where inhibition reaches its midpoint.
